Results on one compound are retold here after publication PMC12881670, “Investigation into ligand selectivity and bias at the formyl peptide receptor family” (The Journal of Pharmacology and Experimental Therapeutics, 2025).

As usually defined, the Emax is the size of the effect at its maximum, as opposed to the concentration needed.

The subject of test [1] is formyl peptide receptor family (Hs_FPR1, Hs_FPR2, Mm_Fpr1, Mm_Fpr2). Nature of the test: Summary of main findings: receptor subtype selectivity and ligand bias across all readouts. Further details: species or system human and mouse. As to conditions: summary grade of ligand bias relative to WKYMVm; key not given. An excerpt:
To determine ligand bias, a reference ligand is required, that is, “balanced” for the pathways tested.[37] […] We then used measurements of the activity ratio (Log (Emax/EC50)) for each receptor, ligand, and pathway in an attempt to observe any ligand bias (Fig. 6).

In test [2] the target is T1, Hs_FPR2 (Homo sapiens, UniProt P25090).
T1 construct: expressed in transfected cells
T1 sequence (P25090 1-351): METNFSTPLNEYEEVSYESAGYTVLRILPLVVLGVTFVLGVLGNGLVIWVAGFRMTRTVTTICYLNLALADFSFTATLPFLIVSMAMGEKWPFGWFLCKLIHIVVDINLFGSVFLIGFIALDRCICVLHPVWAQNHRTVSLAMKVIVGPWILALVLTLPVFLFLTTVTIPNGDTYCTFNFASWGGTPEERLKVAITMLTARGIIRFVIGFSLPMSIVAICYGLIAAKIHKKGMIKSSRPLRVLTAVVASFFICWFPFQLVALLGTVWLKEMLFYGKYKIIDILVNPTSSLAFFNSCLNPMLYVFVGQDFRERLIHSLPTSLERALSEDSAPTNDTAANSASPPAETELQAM
Briefly: BRET receptor-RLuc8 interaction with Arrestin 3-YFP. In kind it is cell-based. The procedure: (§1) BRET1 assays to measure FPR interaction with Venus-mGsi and Arrestin 3-yellow fluorescent protein (YFP) were performed as previously described.[31]^,[32] Briefly, all FPRs C-terminally fused to Renilla Luciferase (donor, RLuc8) were transiently transfected along with either Venus-mGsi or YFP-Arrestin 3 (acceptor) at a ratio of 1:4. 24 hours post transfection, cells were replated into white-walled, 96-well plates and cultured for a further 24–48 hours. On the day of experimentation, growth media was aspirated and replaced with 80 μl Hanks Buffered Saline Solution and equilibrated for 30 minutes. Coelenterazine h was added to each well to a final concentration of 5 μM for 5 minutes before the addition of each compound, and the plate was incubated for a further 10 minutes at 37 °C before being read on a ClarioStar Plus, with luminescence measured at 480/20 nm (donor) and 530/20 (acceptor). The BRET ratio (acceptor/donor) was determined, and the background (untreated) subtracted to give the N-BRET value.
(§2) All data were analyzed using GraphPad Prism using the nonlinear regression log(agonist) versus response (3 parameters) function for all assays, except binding, which was analyzed using the One site-FitlogIC50 function. Bias calculations were carried out following IUPHAR guidelines as described,[27]^,[37] and data were presented as the Δ Activity ratio (Log[EmaxB/EC50B])-(Log[EmaxA/EC50A]).
Background: BRET reads energy transfer from a luciferase to a nearby fluorophore.

Test [3] concerns the target T2, Mm_Fpr1 (Mus musculus, UniProt P33766).
T2 construct: expressed in transfected cells
T2 sequence (P33766 1-364): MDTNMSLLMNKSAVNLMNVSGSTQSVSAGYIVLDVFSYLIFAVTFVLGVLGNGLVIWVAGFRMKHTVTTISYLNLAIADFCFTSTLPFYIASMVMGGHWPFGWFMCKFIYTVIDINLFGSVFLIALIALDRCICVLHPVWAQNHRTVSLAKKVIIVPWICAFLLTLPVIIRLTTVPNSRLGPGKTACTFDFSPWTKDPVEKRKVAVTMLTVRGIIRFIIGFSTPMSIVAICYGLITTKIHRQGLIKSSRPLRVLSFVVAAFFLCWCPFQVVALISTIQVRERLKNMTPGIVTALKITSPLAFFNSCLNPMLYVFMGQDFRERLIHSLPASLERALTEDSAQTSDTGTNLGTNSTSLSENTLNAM
Described as above. It counts as cell-based. The procedure:
as §1, §2

Test [4] addresses T3, Hs_FPR1 (Homo sapiens, UniProt P21462).
T3 construct: expressed in transfected cells
T3 sequence (P21462 1-350): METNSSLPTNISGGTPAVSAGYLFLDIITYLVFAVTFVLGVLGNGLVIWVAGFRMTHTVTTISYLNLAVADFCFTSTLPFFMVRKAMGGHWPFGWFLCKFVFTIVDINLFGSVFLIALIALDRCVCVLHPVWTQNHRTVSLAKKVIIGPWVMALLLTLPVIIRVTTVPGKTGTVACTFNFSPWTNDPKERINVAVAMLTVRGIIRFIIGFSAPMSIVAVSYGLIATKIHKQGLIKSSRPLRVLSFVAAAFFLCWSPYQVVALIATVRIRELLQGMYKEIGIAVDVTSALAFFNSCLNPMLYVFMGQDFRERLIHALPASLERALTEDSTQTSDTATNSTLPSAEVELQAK
The description is as above. In kind it is cell-based. The procedure:
as §1, §2

The target of test [5] is T4, Mm_Fpr2 (Mus musculus, UniProt O88536).
T4 construct: expressed in transfected cells
T4 sequence (O88536 1-351): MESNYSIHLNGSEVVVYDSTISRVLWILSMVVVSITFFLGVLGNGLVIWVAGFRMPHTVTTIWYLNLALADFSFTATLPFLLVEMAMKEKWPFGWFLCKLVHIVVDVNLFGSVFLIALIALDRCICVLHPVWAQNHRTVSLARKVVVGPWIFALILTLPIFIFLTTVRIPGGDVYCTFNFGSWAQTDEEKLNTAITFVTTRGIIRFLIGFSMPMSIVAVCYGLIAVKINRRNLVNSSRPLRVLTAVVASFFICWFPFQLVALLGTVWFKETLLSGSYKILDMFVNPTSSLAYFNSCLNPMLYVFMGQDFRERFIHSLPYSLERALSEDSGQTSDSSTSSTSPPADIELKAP
The description is as above. It counts as cell-based. On the procedure:
as §1, §2

Test [6] has as its target T1, Hs_FPR2. Briefly: ERK1/2 phosphorylation by Western blotting. In kind it is cell-based. The procedure: (§3) ERK phosphorylation was detected by Western blotting as previously described.[30] Briefly, HEK293 cells stably expressing FLAG-tagged FPRs were plated into 12-well culture plates until 90% confluent. On the day of the experiment, culture media was replaced with serum-free Dulbecco’s modified Eagle’s medium and incubated for 2 hours before stimulation with the indicated compounds. After 7 minutes, the media was removed and stimulation terminated by the addition of 100 μl sample buffer (0.5% SDS, Tris (pH 6.8), glycerol, at >90 °C).
as §2

For test [7], the target named is T2, Mm_Fpr1. Nature of the test: ERK1/2 phosphorylation by Western blotting. It counts as cell-based. On the procedure:
as §3, §2
A general note: In western blotting, separated proteins are transferred to a membrane and probed.

In test [8] the target is T3, Hs_FPR1. Nature of the test: ERK1/2 phosphorylation by Western blotting. It counts as cell-based. On the procedure: as §3, §2
Test [9] deals with T4, Mm_Fpr2. Briefly: ERK1/2 phosphorylation by Western blotting. In kind it is cell-based. On the procedure: as §3, §2
The next test deals with FPR1. As to conditions: at 100 nM; cited from earlier work.
Test [10] has as its target T2, Mm_Fpr1. Nature of the test: Internalization of FLAG-tagged receptors by flow cytometry. It counts as cell-based. As to conditions: Mm_Fpr1, 30 min, relative to 1 μM WKYMVm. The procedure: Internalization of FPRs was measured by flow cytometry.[30] Briefly, cells were incubated with Alexa Fluor 657 conjugated M1 antiflag antibody (Sigma-Aldrich Cat# F3040, RRID:AB_439712) for 30 minutes at 37 °C to label surface receptors. Cells were then incubated with the indicated concentration of ligand before washing in PBS/0.04% EDTA to remove any remaining surface antibody. Remaining fluorescence was then measured using flow cytometry on either a BD FACScalibur or Attune, recording 5000 gated events. […] As a control, some samples were left untreated, and “strip only” was measured as a readout of constitutive endocytosis, and this value was subtracted from the data. Vehicle control (0.1% DMSO) had no effect on internalization of receptors.
as §2
For orientation: A flow cytometer gives signals particle by particle.

The target in test [11] is T1, Hs_FPR2. Nature of the test: BRET receptor-RLuc8 interaction with Venus-mGsi. It counts as cell-based. On the procedure:
as §1, §2

In test [12] the target is T2, Mm_Fpr1. Briefly: BRET receptor-RLuc8 interaction with Venus-mGsi. In kind it is cell-based. On the procedure: as §1, §2
The target of test [13] is T3, Hs_FPR1. Nature of the test: BRET receptor-RLuc8 interaction with Venus-mGsi. It counts as cell-based. The procedure:
as §1, §2

Test [14] addresses T4, Mm_Fpr2. Briefly: BRET receptor-RLuc8 interaction with Venus-mGsi. It counts as cell-based. On the procedure: as §1, §2

Each structure is given as a SMILES string.

Take `CSCC[C@H](NC(=O)[C@@H](NC(=O)[C@H](CCSC)NC(=O)[C@H](Cc1ccc(O)cc1)NC(=O)[C@H](CCCCN)NC(=O)[C@@H](N)Cc1c[nH]c2ccccc12)C(C)C)C(N)=O` [WKYMVM]: the Bias result in test [1] is on record as “No”. Moreover, the Emax was 94.8% on Hs_FPR2 [2]; 83.1% at Mm_Fpr1 [3]; 75% at Hs_FPR1 [4]; 94.3% on Mm_Fpr2 [5]; 79.2% on Hs_FPR2 [11]; 37.5% at Mm_Fpr1 [12]. Moreover, the Emax is 44.1% at Hs_FPR1 [13] and 87.9% at Mm_Fpr2 [14]. For the same compound, the Emax at 1 µM on Hs_FPR2 [6] worked out at 125%; on Mm_Fpr1 [7], 118%; on Hs_FPR1 [8], 141%; on Mm_Fpr2 [9] it was 128%. Also, the “arrestin recruitment to FPR1, Pathhunter” value with FPR1 is listed as “neither WKYMVM nor ACT-389949 resulted in recruitment”. Moreover, at Mm_Fpr1 [10], the “agonist-induced internalization (words)” value is on record as “full agonists”.
